Experiment: Pharmacokinetics experiment in mouse after intramuscular injection of compound suspensions
Assay type: in vivo
Settings: 9 mg/kg (calculated according to Rotigotine), SD mice, plasma
Experimental: The compounds of the present disclosure were precisely weighed in a proper amount and placed in a 20 ml vial, a blank matrix solution and a zirconia grinding ball were added to grind by vortex. After grinding, the suspension sample was transferred, and the blank matrix solution was used for diluting the suspension sample to final volume, and the suspension sample was packaged into 7 ml vials to prepare about a 20 mg/ml suspension. After the quantitative analysis was determined, the suspension was used for the pharmacokinetics experiment in the mouse.
Suspensions of Embodiments 15, 24, 27, 32 and 54 were prepared according to the method of Embodiment 82 and were taken at a dose of 9 mg/kg(calculated according to Rotigotine), and each of the above-mentioned compound suspensions was intramuscularly administrated for three SD mice, and whole blood samples were taken in 1 h, 4 h, 8 h, 24 h, 48 h, 72 h, 96 h, 120 h, 168 h, 216, 264 h, 312 h, and 360 h after administration, with 0.3 ml/time point. K2EDT/heparin sodium were added to the whole blood samples for anticoagulation, and a BNPP stabilizer was further added, and then each whole blood sample was centrifuged to obtain plasma in 30 min.

With “(S)-6-(propyl(2-(thiophen-2-yl)ethyl)amino)-5,6,7,8-tetrahydronaphthalen-1-yl 3-(16-(ethylamino)-16-oxohexadecanamido) propanoate [Embodiment 54]” the “blood concentrations of the active compounds” value (shortened to “blood concentrations”) (1 h after intramuscular injection of compound suspension) was 0.288 ng/mL, the “blood concentrations” value (4 h after intramuscular injection of compound suspension) was 1.26 ng/mL and the “blood concentrations” value (8 h after intramuscular injection of compound suspension) was 2.53 ng/mL. The “blood concentrations” value (24 h after intramuscular injection of compound suspension) was 2.31 ng/mL, the “blood concentrations” value (48 h after intramuscular injection of compound suspension) was 2.02 ng/mL and the “blood concentrations” value (72 h after intramuscular injection of compound suspension) was 1.51 ng/mL. The “blood concentrations” value (96 h after intramuscular injection of compound suspension) was 1.57 ng/mL, the “blood concentrations” value (120 h after intramuscular injection of compound suspension) was 1.86 ng/mL and the “blood concentrations” value (168 h after intramuscular injection of compound suspension) was 2.29 ng/mL. For the same substance, the “blood concentrations” value (216 h after intramuscular injection of compound suspension) was 2.76 ng/mL, the “blood concentrations” value (264 h after intramuscular injection of compound suspension) was 1.83 ng/mL and the “blood concentrations” value (312 h after intramuscular injection of compound suspension) was 1.33 ng/mL. The “blood concentrations” value (360 h after intramuscular injection of compound suspension) was 0.906 ng/mL.

From patent publication US12497378B2, “Tetrahydronaphthalene compounds, pharmaceutical compositions, and uses thereof” (GUANGZHOU HENOVCOM BIOSCIENCE CO., LTD., priority 2020, dated 2025)
